# Read-outs that look alike come from different tables or passages of the source.
# Assays:
# [1] = target: T1, full length CAMKK1 (CAMKK1-FL) (Homo sapiens, UniProt Q8N5S9); experiment: IC50 determination by TR-FRET enzymatic assay with CAMKK1-FL in the presence of Ca2+/calmodulin; type: biochemical
# T1 construct: made in house; host or cells: Spodoptera frugiperda Sf9 insect cells (baculovirus)
# Method: Final assay concentrations of the components of the enzyme mix were 5 nM CAMKK1-FL, 1 µM calmodulin, 1 mM CaCl2, 5 mM MgCl2, 1 mM DTT. Final concentrations of ATP and peptide were 100 µM ATP, 1 µM peptide (STK substrate S1). The inhibitor solutions were prepared starting from 10 mM solutions in DMSO, diluted in enzymatic assay buffer to 200 or 100 µM, and then a 2x serial dilution in enzymatic assay buffer was performed, yielding the serially diluted inhibitors at 2.5x final concentration. […] For detection, 5 µL of streptavidin-XL665, and 5 µL of antibody-Eu-cryptate were added. […] Data was analysed in GraphPad PRISM version 7.
# [2] = target: T2, CAMKK1 kinase domain (CAMKK1-KD) (Homo sapiens, UniProt Q8N5S9); experiment: Isothermal titration calorimetry (ITC) with CAMKK1-KD; type: binding; settings: for ΔH: ITC at 20 °C, binding enthalpy
# T2 construct: The kinase domain (Gln124 to Lys411) was amplified using the primers; 6xHis (TEV-cleavable) (N, cleaved yes); made in house; host or cells: Escherichia coli BL21(DE3)-R3 co-expressing λ-phosphatase
# Method: Measurements were made using a MicroCal AutoiITC200 (Malvern, United Kingdom), at 20 °C with 1000 rpm stirring. For all measurements CAMKK1-KD protein was dialysed overnight against gel filtration buffer, and the dialysis buffer was used to dilute the inhibitors. CAMKK1-KD protein was titrated into a solution containing the inhibitor. […] ITC data was analysed with NITPIC, and SEDPHAT; figures were made using GUSSI[30].
# [3] = target: T3, CAMKK1 kinase domain (CAMKK1-KD, Gln124-Lys411) (Homo sapiens, UniProt Q8N5S9); experiment: Differential scanning fluorimetry (DSF) screen of a kinase inhibitor library against CAMKK1-KD; type: binding
# T3 construct: The kinase domain (Gln124 to Lys411) was amplified using the primers; 6xHis (TEV-cleavable) (N, cleaved yes); made in house; host or cells: Escherichia coli BL21(DE3)-R3 co-expressing λ-phosphatase
# Method: DSF measurements were made in a 384-well plate.
# The compounds, previously solubilized in DMSO, were used at 10 µM final concentration and 0.1% DMSO. Plates were sealed using optically clear films and transferred to a QuantStudio 6 qPCR instrument (Applied Biosystems). […] Protein in 0.1% DMSO was used as a reference.
# CAMKK2 = test system: CAMKK2; design: concentration or dose not given beside the values; settings: supplement; ref Anastassiadis et al. (2011); cited from earlier work
# CAMKK1 = test system: CAMKK1; design: concentration or dose not given beside the values; settings: supplement; ref Anastassiadis et al. (2011); cited from earlier work
# [4] = DSF, 1 μM CAMKK1-KD, compound 10 µM, mean and standard error from triplicate measurements, read-out: ΔTm (°C) CAMKK1
# [5] = DSF, CAMKK1-KD, compound 10 µM, repeated in Table 3, read-out: ΔTm (°C)
# [6] = DSF, 1 μM CAMKK1-KD, compound 10 µM, supplement, read-out: Mean ΔTm (°C)
# [7] = DSF, 1 μM CAMKK1-KD, compound 10 µM, supplement
# T2 sequence (Q8N5S9 124-411): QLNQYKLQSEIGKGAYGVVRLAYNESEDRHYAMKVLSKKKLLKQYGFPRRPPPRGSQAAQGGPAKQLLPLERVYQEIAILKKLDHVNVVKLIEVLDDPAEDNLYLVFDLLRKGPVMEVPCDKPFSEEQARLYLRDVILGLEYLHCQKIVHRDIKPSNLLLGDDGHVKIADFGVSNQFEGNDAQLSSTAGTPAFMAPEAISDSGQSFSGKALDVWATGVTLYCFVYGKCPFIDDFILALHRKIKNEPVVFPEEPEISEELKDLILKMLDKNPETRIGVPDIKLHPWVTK
# T3 sequence (Q8N5S9 124-411): as above
compound,measurement,setting,value
COc1cc(N2CCC(N3CCN(C)CC3)CC2)ccc1Nc1ncc(Cl)c(Nc2ccccc2P(C)(C)=O)n1 [AP26113],IC50,[1],89 nM
same,Kd,[2],45 nM
same,ΔH,[2],-9.11 kcal/mol
same,ΔTm at 10 µM,[3]; [4],8.2 ± 0.6 °C
same,ΔTm at 10 µM,[3]; [5],8.2 ± 0.6 °C
COCCOc1ccc2c(c1)ncn2-c1ccc2cccc(N3CCC(N)CC3)c2n1 [CP-673451],IC50,[1],101 nM
same,Kd,[2],7 nM
same,ΔTm at 10 µM,[3]; [4],14.4 ± 0.9 °C
same,ΔTm at 10 µM,[3]; [5],14.4 ± 0.9 °C
"CC1(COc2ccc3c(c2)ncn3-c2ccc3cccc(N4CCC(N)CC4)c3n2)COC1 [Crenolanib (CP-868596), Crenolanib]",IC50,[1],153 nM
same,Kd,[2],4 nM
same,ΔH,[2],-10.9 kcal/mol
same,ΔTm at 10 µM,[3]; [4],13.6 ± 0.6 °C
same,ΔTm at 10 µM,[3]; [5],13.6 ± 0.6 °C
"CN1CCN(c2ccc3nc(-c4c(N)c5c(F)cccc5[nH]c4=O)[nH]c3c2)CC1 [Dovitinib (TKI-258) Dilactic Acid, Dovitinib]",Remaining activity (%) from Anastassiadis et al. (2011) CAMKK2,CAMKK2,86%
same,Remaining activity (%) from Anastassiadis et al. (2011) CAMKK1,CAMKK1,49%
same,ΔTm at 10 µM,[3]; [6],5.7 °C
O=C(O)c1ccc(-c2c[nH]c3ncc(-c4ccccc4)cc23)cc1C1CCCC1 [GSK650394],ΔH,[2],-20.5 kcal/mol
same,ΔTm at 10 µM,[3]; [4],16.1 ± 0.8 °C
same,ΔTm at 10 µM,[3]; [5],16.1 ± 0.8 °C
CCS(=O)(=O)Nc1ccc2c(c1)/C(=C(/Nc1ccc(CN3CCCCC3)cc1)c1ccccc1)C(=O)N2 [Hesperadin],IC50,[1],107 nM
same,Kd,[2],26 nM
same,ΔH,[2],-14.1 kcal/mol
same,ΔTm at 10 µM,[3]; [4],7 ± 0.8 °C
same,ΔTm at 10 µM,[3]; [5],7 ± 0.8 °C
Cc1ccc(Nc2nccc(N(C)c3ccc4c(C)n(C)nc4c3)n2)cc1S(N)(=O)=O [Pazopanib],Remaining activity (%) from Anastassiadis et al. (2011) CAMKK2,CAMKK2,98%
same,Remaining activity (%) from Anastassiadis et al. (2011) CAMKK1,CAMKK1,72%
CNC(=O)c1cc(Oc2ccc(NC(=O)Nc3ccc(Cl)c(C(F)(F)F)c3)cc2)ccn1 [Sorafenib],Remaining activity (%) from Anastassiadis et al. (2011) CAMKK2,CAMKK2,103%
same,Remaining activity (%) from Anastassiadis et al. (2011) CAMKK1,CAMKK1,103%
same,ΔTm at 10 µM,[3]; read-out: Mean ΔTm (°C),2.5 °C
CCN(CC)CCNC(=O)c1c(C)[nH]c(/C=C2\C(=O)Nc3ccc(F)cc32)c1C [Sunitinib Malate],Remaining activity (%) from Anastassiadis et al. (2011) CAMKK2,CAMKK2,65%
same,Remaining activity (%) from Anastassiadis et al. (2011) CAMKK1,CAMKK1,52%
"Cc1cc(Nc2cc(N3CCN(C)CC3)nc(Sc3ccc(NC(=O)C4CC4)cc3)n2)[nH]n1 [VX-680 (Tozasertib), Tozasertib]",Remaining activity (%) from Anastassiadis et al. (2011) CAMKK1,CAMKK1,86%
same,ΔTm at 10 µM,[3]; [6],3.4 °C
"COc1cc2c(Nc3ccc(Br)cc3F)ncnc2cc1OCC1CCN(C)CC1 [Vandetanib (ZD6474), Vandetanib]",Remaining activity (%) from Anastassiadis et al. (2011) CAMKK2,CAMKK2,102%
same,Remaining activity (%) from Anastassiadis et al. (2011) CAMKK1,CAMKK1,90%
"CC[C@@H]1C(=O)N(C)c2cnc(Nc3ccc(C(=O)N[C@H]4CC[C@H](N5CCN(CC6CC6)CC5)CC4)cc3OC)nc2N1C(C)C [Volasertib (BI 6727), Volasertib]",ΔTm at 10 µM,[3]; [4],7.7 ± 0.8 °C
C=CC(=O)Nc1cccc(Oc2nc(Nc3ccc(N4CCN(C)CC4)cc3)ncc2Cl)c1 [WZ3146],Mean ΔTm (°C),[3]; [7],3.1 °C
C=CC(=O)Nc1cccc(Sc2nc(Nc3ccc(N4CCN(C)CC4)cc3)ncc2Cl)c1 [WZ8040],Mean ΔTm (°C),[3]; [7],4.1 °C
COc1ccc(Cl)c(Nc2nc3ccccc3nc2NS(=O)(=O)c2cccc(NC(=O)C(C)(C)N)c2)c1 [XL147],ΔTm at 10 µM,[3]; [6],4.1 °C
COc1cc2c(Nc3ccc(NC(=O)c4ccccc4)cc3)ncnc2cc1OCCCN1CCOCC1 [ZM 447439],Mean ΔTm (°C),[3]; [7],2.0 °C
AZD4547,Mean ΔTm (°C),[3]; [7],5.9 °C

# Source: publication PMC6172212, “Structural Analysis of Inhibitor Binding to CAMKK1 Identifies Features Necessary for Design of Specific Inhibitors” (Scientific Reports, 2018)
